Reference: PubChem BioAssay (NCI)
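Each compound was tested at five concentrations against cells in 96-well plates for 48 hours. GI50 is the concentration that inhibits growth by half. At the TGI there is no net growth.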

How the values were obtained:
Assay in all cases: growth of human tumour cells (NCI), 48 h
HT29 colon = system: HT29 colon
786-0 renal = system: 786-0 renal
PC-3 prostate = system: PC-3 prostate
UACC-62 melanoma = system: UACC-62 melanoma
EKVX NSCLC = system: EKVX NSCLC
NCI-H522 lung = system: NCI-H522 lung
SNB-19 CNS = system: SNB-19 CNS
SF-268 CNS = system: SF-268 CNS
SK-MEL-5 melanoma = system: SK-MEL-5 melanoma
OVCAR-5 ovarian = system: OVCAR-5 ovarian

With `CC(=O)C1=C(O)C=C2Oc3c(C(=O)/C=C/c4cc(C(F)(F)F)cc(C(F)(F)F)c4)c(O)c(C)c(O)c3[C@]2(C)C1=O` the GI50 (HT29 colon) was 0.535 µM, the TGI (HT29 colon) was 1.71 µM and the GI50 (786-0 renal) was 0.602 µM. It also gave a TGI (786-0 renal) of 2.35 µM, a GI50 (PC-3 prostate) of 0.564 µM and a TGI (PC-3 prostate) of 2.3 µM. The GI50 (UACC-62 melanoma) was 0.436 µM, the TGI (UACC-62 melanoma) was 1.27 µM and the GI50 (EKVX NSCLC) was 0.462 µM. It also gave a TGI (EKVX NSCLC) of 6.44 µM, a GI50 (NCI-H522 lung) of 0.38 µM and a TGI (NCI-H522 lung) of 1.22 µM. For the same compound, the GI50 (SNB-19 CNS) was 0.674 µM, the TGI (SNB-19 CNS) was 4.89 µM and the GI50 (SF-268 CNS) was 0.736 µM. It also gave a TGI (SF-268 CNS) of 4.04 µM, a GI50 (SK-MEL-5 melanoma) of 0.444 µM and a TGI (SK-MEL-5 melanoma) of 1.27 µM. The GI50 (OVCAR-5 ovarian) was 0.757 µM and the TGI (OVCAR-5 ovarian) was 4.46 µM.
For `CC(C)(C)OC(=O)NCCNC1=CC(=O)c2nc3ccccc3c3ccnc1c23`, the GI50 (HT29 colon) was 17.9 µM, the TGI (HT29 colon) was 43.8 µM and the GI50 (786-0 renal) was 28.5 µM. The TGI (786-0 renal) was over 100 µM, the GI50 (PC-3 prostate) was 15.1 µM and the TGI (PC-3 prostate) was 49.2 µM. The GI50 (UACC-62 melanoma) was 19.6 µM, the TGI (UACC-62 melanoma) was 43.2 µM and the GI50 (EKVX NSCLC) was 41.4 µM. It also gave a TGI (EKVX NSCLC) of over 100 µM, a GI50 (NCI-H522 lung) of 18.3 µM and a TGI (NCI-H522 lung) of 44.8 µM. The GI50 (SNB-19 CNS) was 22.7 µM, the TGI (SNB-19 CNS) was 83.7 µM and the GI50 (SF-268 CNS) was 18.7 µM. The TGI (SF-268 CNS) was 77.1 µM, the GI50 (SK-MEL-5 melanoma) was 11.1 µM and the TGI (SK-MEL-5 melanoma) was 23.1 µM. It also gave a GI50 (OVCAR-5 ovarian) of 28 µM and a TGI (OVCAR-5 ovarian) of 86.1 µM.
`COc1cc2c(cc1OC)C13CCN4C=C5CCOC6CC(=O)N2C1C6C5CC43` (centres undefined) gave a TGI (HT29 colon) of over 100 µM, a TGI (786-0 renal) of over 100 µM and a TGI (PC-3 prostate) of over 100 µM. For the same compound, the TGI (UACC-62 melanoma) was over 100 µM, the TGI (EKVX NSCLC) was over 100 µM and the TGI (NCI-H522 lung) was over 100 µM. For the same compound, the TGI (SNB-19 CNS) was over 100 µM, the TGI (SF-268 CNS) was over 100 µM and the TGI (SK-MEL-5 melanoma) was over 100 µM. For the same compound, the TGI (OVCAR-5 ovarian) was over 100 µM.
`Cc1ccccc1NC(=S)Nc1ccccn1` was tested, and the GI50 (HT29 colon) was over 100 µM, the TGI (HT29 colon) was over 100 µM and the GI50 (786-0 renal) was over 100 µM. It also gave a TGI (786-0 renal) of over 100 µM, a GI50 (PC-3 prostate) of over 100 µM and a TGI (PC-3 prostate) of over 100 µM. For the same compound, the GI50 (UACC-62 melanoma) was over 100 µM, the TGI (UACC-62 melanoma) was over 100 µM and the GI50 (EKVX NSCLC) was 49 µM. The TGI (EKVX NSCLC) was over 100 µM, the GI50 (NCI-H522 lung) was over 100 µM and the TGI (NCI-H522 lung) was over 100 µM. For the same compound, the GI50 (SNB-19 CNS) was over 100 µM, the TGI (SNB-19 CNS) was over 100 µM and the GI50 (SF-268 CNS) was over 100 µM. The TGI (SF-268 CNS) was over 100 µM, the GI50 (SK-MEL-5 melanoma) was 47.2 µM and the TGI (SK-MEL-5 melanoma) was over 100 µM. The GI50 (OVCAR-5 ovarian) was over 100 µM and the TGI (OVCAR-5 ovarian) was over 100 µM.
Work on `C=C1C(=O)O[C@H]2[C@H]1CC/C(CNC(=O)/C=C/c1ccc(Br)cc1)=C\CC[C@@]1(C)O[C@@H]21` yielded a GI50 (HT29 colon) of 0.622 µM, a TGI (HT29 colon) of 2.66 µM and a GI50 (786-0 renal) of 1.05 µM. For the same compound, the TGI (786-0 renal) was 2.45 µM, the GI50 (PC-3 prostate) was 1.47 µM and the TGI (PC-3 prostate) was 3.24 µM. The GI50 (UACC-62 melanoma) was 1.34 µM, the TGI (UACC-62 melanoma) was 2.78 µM and the GI50 (EKVX NSCLC) was 1.46 µM. It also gave a TGI (EKVX NSCLC) of 2.91 µM, a GI50 (NCI-H522 lung) of 0.711 µM and a TGI (NCI-H522 lung) of 2.3 µM. For the same compound, the GI50 (SNB-19 CNS) was 1.61 µM, the TGI (SNB-19 CNS) was 4.6 µM and the GI50 (SF-268 CNS) was 1.78 µM. It also gave a TGI (SF-268 CNS) of 4.27 µM, a GI50 (SK-MEL-5 melanoma) of 1.6 µM and a TGI (SK-MEL-5 melanoma) of 2.96 µM. It also gave a GI50 (OVCAR-5 ovarian) of 1.7 µM and a TGI (OVCAR-5 ovarian) of 3.75 µM.
`Cn1cc(-c2nonc2-c2c[nH]c3ccccc23)c2ccccc21` showed a GI50 (HT29 colon) of 0.35 µM, a TGI (HT29 colon) of 10.8 µM and a GI50 (786-0 renal) of 0.611 µM. It also gave a TGI (786-0 renal) of 7.94 µM, a GI50 (PC-3 prostate) of 0.488 µM and a TGI (PC-3 prostate) of 17.2 µM. It also gave a GI50 (UACC-62 melanoma) of 0.341 µM, a TGI (UACC-62 melanoma) of 5.1 µM and a GI50 (EKVX NSCLC) of 0.567 µM. For the same compound, the TGI (EKVX NSCLC) was 16 µM, the GI50 (NCI-H522 lung) was 0.366 µM and the TGI (NCI-H522 lung) was 9.79 µM. For the same compound, the GI50 (SNB-19 CNS) was 0.385 µM, the TGI (SNB-19 CNS) was 10.9 µM and the GI50 (SF-268 CNS) was 0.725 µM. It also gave a TGI (SF-268 CNS) of 13.2 µM, a GI50 (SK-MEL-5 melanoma) of 0.518 µM and a TGI (SK-MEL-5 melanoma) of 12.9 µM. For the same compound, the GI50 (OVCAR-5 ovarian) was 1.24 µM and the TGI (OVCAR-5 ovarian) was 16.4 µM.
Compound `CC(=O)N1CCN(C2=Nc3ccccc3CO2)C1=S` has a GI50 (HT29 colon) of 89.6 µM, a TGI (HT29 colon) of over 100 µM and a GI50 (786-0 renal) of over 100 µM. It also gave a TGI (786-0 renal) of over 100 µM, a GI50 (PC-3 prostate) of 87.6 µM and a TGI (PC-3 prostate) of over 100 µM. It also gave a GI50 (UACC-62 melanoma) of 83 µM, a TGI (UACC-62 melanoma) of over 100 µM and a GI50 (EKVX NSCLC) of 45.1 µM. It also gave a TGI (EKVX NSCLC) of over 100 µM, a GI50 (NCI-H522 lung) of 49.2 µM and a TGI (NCI-H522 lung) of over 100 µM. The GI50 (SNB-19 CNS) was over 100 µM, the TGI (SNB-19 CNS) was over 100 µM and the GI50 (SF-268 CNS) was over 100 µM. It also gave a TGI (SF-268 CNS) of over 100 µM, a GI50 (SK-MEL-5 melanoma) of 20.4 µM and a TGI (SK-MEL-5 melanoma) of 48.4 µM. For the same compound, the GI50 (OVCAR-5 ovarian) was 85.8 µM and the TGI (OVCAR-5 ovarian) was over 100 µM.
`COc1cccc2c1C(=O)c1c(O)c3c(c(O)c1C2=O)CC(O)(C(C)=O)CC3OC1CC(N)C(O)C(C)O1` (centres undefined) showed a GI50 (HT29 colon) of 0.0242 µg/mL, a TGI (HT29 colon) of 1.22 µg/mL and a GI50 (786-0 renal) of 0.0177 µg/mL. The TGI (786-0 renal) was 0.0836 µg/mL, the GI50 (PC-3 prostate) was 0.0336 µg/mL and the TGI (PC-3 prostate) was 0.545 µg/mL. For the same compound, the GI50 (UACC-62 melanoma) was 0.0157 µg/mL, the TGI (UACC-62 melanoma) was 0.0734 µg/mL and the GI50 (EKVX NSCLC) was 0.191 µg/mL. The TGI (EKVX NSCLC) was 2.66 µg/mL, the GI50 (NCI-H522 lung) was 0.0317 µg/mL and the TGI (NCI-H522 lung) was 0.287 µg/mL. It also gave a GI50 (SNB-19 CNS) of 0.0198 µg/mL, a TGI (SNB-19 CNS) of 2.11 µg/mL and a TGI (SF-268 CNS) of 0.262 µg/mL. For the same compound, the GI50 (SK-MEL-5 melanoma) was 0.0193 µg/mL, the TGI (SK-MEL-5 melanoma) was 0.0525 µg/mL and the GI50 (OVCAR-5 ovarian) was 0.0674 µg/mL. It also gave a TGI (OVCAR-5 ovarian) of 3.46 µg/mL.
For `C=C(Cn1c(=O)c2ccccc2c2ccccc21)c1ccc(C(=O)Nc2ccccc2N)cc1`, the GI50 (HT29 colon) was 13.3 µM, the TGI (HT29 colon) was over 83.8 µM and the GI50 (786-0 renal) was 5.95 µM. The TGI (786-0 renal) was over 100 µM, the GI50 (PC-3 prostate) was 4.37 µM and the TGI (PC-3 prostate) was over 79.4 µM. The GI50 (UACC-62 melanoma) was 24.1 µM, the TGI (UACC-62 melanoma) was over 100 µM and the GI50 (EKVX NSCLC) was over 59.8 µM. For the same compound, the TGI (EKVX NSCLC) was over 100 µM, the GI50 (NCI-H522 lung) was 4.55 µM and the TGI (NCI-H522 lung) was over 94.4 µM. It also gave a GI50 (SNB-19 CNS) of 42.9 µM, a TGI (SNB-19 CNS) of over 100 µM and a GI50 (SF-268 CNS) of 12.6 µM. The TGI (SF-268 CNS) was over 100 µM, the GI50 (SK-MEL-5 melanoma) was 20.6 µM and the TGI (SK-MEL-5 melanoma) was over 100 µM. It also gave a GI50 (OVCAR-5 ovarian) of over 100 µM and a TGI (OVCAR-5 ovarian) of over 100 µM.
For `COc1ccc(C#Cc2ccccc2C#CCCCCO)cc1`, the GI50 (HT29 colon) was 12.3 µM, the TGI (HT29 colon) was 24.8 µM and the GI50 (786-0 renal) was 22.8 µM. For the same compound, the TGI (786-0 renal) was 45.9 µM, the GI50 (PC-3 prostate) was 21.9 µM and the TGI (PC-3 prostate) was 42.6 µM. For the same compound, the GI50 (UACC-62 melanoma) was 15.9 µM, the TGI (UACC-62 melanoma) was 29.8 µM and the GI50 (EKVX NSCLC) was 23.6 µM. It also gave a TGI (EKVX NSCLC) of 54 µM, a GI50 (NCI-H522 lung) of 18.6 µM and a TGI (NCI-H522 lung) of 34.9 µM. It also gave a GI50 (SNB-19 CNS) of 21.4 µM, a TGI (SNB-19 CNS) of 36.9 µM and a GI50 (SF-268 CNS) of 21.7 µM. The TGI (SF-268 CNS) was 42.9 µM, the GI50 (SK-MEL-5 melanoma) was 25.2 µM and the TGI (SK-MEL-5 melanoma) was 57.6 µM. The GI50 (OVCAR-5 ovarian) was 18.7 µM and the TGI (OVCAR-5 ovarian) was 37.6 µM.
